From patent publication US12226410B2, “Methods for enhancing cellular clearance of pathological molecules via activation of the cellular protein ykt6” (NORTHWESTERN UNIVERSITY, priority 2019, dated 2025)

What was measured:
[1] = system: a-syn; assay: FTI treatment of wild-type mice: a-syn levels in cortex; assay type: in vivo; conditions: daily i.p. 0.9 mg/kg, 14 days
Description: FIGS. 15A, 15B, 15C, 15D, 15E, and 15F. FTI treatment of wild-type mice enhances ykt6 SNARE complexes, lysosomal activity, and reduces a-syn. 15A) Wild-type mice (C57Bl/6) were i.p. injected daily with FTI for 14 days at 0.9 mg/kg and compared to vehicle injected mice. Extracts from the cortex were analyzed for cytosolic (cyt) and membrane (mem) distribution of ykt6 (veh, n=5; FTI, n=6). 15B) Representative gel filtration/western blot analysis of cortical extracts of veh or FTI injected wild-type mice. Inputs are shown on the left. NSE indicates equal column loading. 15C) Quantification of ykt6 and STX5 complexes (ca. 120A) from gel filtration analysis in C (n=4 mice). Fraction 1 corresponds to complexes at 120A, while fractions 7-9 correspond to ykt6 monomers at 22-14 A. 15D) The levels of post ER (endo H resistant) GCase were analyzed by western blot and post ER/ER ratios were quantified from the cortex of FTI treated mice (veh, n=5; FTI, n=6). 15E) GCase activity was assessed in cortical lysates and normalized to total protein (veh, n=4; FTI, n=6). 15F) a-Syn levels were quantified from cytosolic or membrane isolated fractions from the cortex of wild-type FTI treated mice (veh, n=4; FTI, n=6). For all quantifications, values are the mean+/−SEM, *p<0.05.
Treatment of C57Bl/6 and DASYN53 mice with farnesyltransferase inhibitors. […]

[2] = system: ykt6 SNARE complexes; assay: Co-IP of GFP-ykt6 SNARE assemblies in FTI-treated SH-SY5Y cells; assay type: cell-based, human; conditions: SH-SY5Y cells expressing GFP-ykt6 wt; 5 nM, 5d
Description: FIGS. 5A, 5B, 5C, 5D, 5E, 5F, and 5G. Reducing farnesyl-ykt6 enhances SNARE assembly and improves the lysosomal targeting of GCase. 5A) Ykt6 membrane shift analysis of SH-SY5Y cells expressing GFP-ykt6 wt or CS (n=3). 5B) Co-IP of GFP-ykt6 and bet1 in A53T iPSn (n=3). 5C) Ykt6 membrane shift analysis in FTI-treated SH-SY5Y wt a-syn cells or A53T iPSn (5 nM farnesyltransferase inhibitors (FTI) LNK-754 (FTI-1) or LNK-3248 (FTI-2) for 5 days) (n=4). Sec22b was measured to assess specificity. 5D) SEC/western blot of FTI-1 treated SH-SY5Y cells. Quantification is shown below. 5E) Co-IP of GFP-ykt6 wt or mutant ykt6-SS, (cannot be palmitoylated or farnesylated) in FTI-treated SHSY5Y cells (5 nM LNK-754, 5d) (n=2). 5F) Immunofluorescence of GCase and LAMP2A in FTI-treated H4 a-syn cells transfected with scrambled (scrb) or ykt6 shRNA (n=3). Scale bar=10 um. 5G) GCase maturation analysis in FTI-treated A53T iPSn by endo H (n=3). Values are the mean+/−SEM, *p<0.05.
To co-IP ykt6 SNARE assemblies, approximately 106-107 cells expressing GFP-tagged YKT6, were harvested in 1 ml of PBS, scraped off the plate and transferred to centrifuge tubes. The cells were subjected to centrifugation 200×g for 5 m at 4° C. […] Eluates were analyzed by western blot as described below. The samples were not analyzed in a blinded manner.

With `C#Cc1cccc(-c2cc(=O)n(C)c3ccc([C@](O)(c4ccc(Cl)cc4)c4cncn4C)cc23)c1` [LNK-754] the a-syn levels [1] was “reduced a-syn levels” and the “ykt6 SNARE complexes by co-IP” value [2] was “increased ykt6 SNARE complexes”.
